The values below come from BindingDB's records for doi:10.1016/j.ejmech.2020.112337 (Paris-Saclay University, 2020).

A value given as a limit tells only on which side of the number the result lay.

One experiment in a line: Inhibition of RIPK1 in human FADD-deficient Jurkat I 2.1 cells assessed as reduction in TNFalpha-induced necroptosis measured after 24 hrs by MTS assay.
For `CCCCNc1nc2ccc([N+](=O)[O-])cc2[nH]1`, the EC50 was 1.7 µM.

The nature of the next experiment: Inhibition of RIPK1 in human FADD-deficient Jurkat I 2.1 cells assessed as protection against TNFalpha-induced necroptosis measured after 24 hrs by MTS assay.
In the case of `O=[N+]([O-])c1ccc2nc(NC3CCCCC3)[nH]c2c1`, the EC50 was 1.04 µM.

As for `CCCCNc1nc2cc([N+](=O)[O-])ccc2s1`, the EC50 came out at 4.7 µM.

Take `CCCCNc1nc2cccc(C(=O)OC)c2[nH]1`: the EC50 is 18.1 µM.

In the case of `Clc1ccc2nc(NC3CCCCC3)[nH]c2c1`, the EC50 was found to be 4.4 µM.

Take `CCCNc1nc2ccc([N+](=O)[O-])cc2[nH]1`: the concentration for a half-maximal effect (EC50) came to 14.4 µM.

Turning to `O=[N+]([O-])c1ccc2nc(Nc3ccccc3)[nH]c2c1`, the EC50 was 2.5 µM.

Turning to `COC(=O)c1cccc2nc(NC3CCCCC3)[nH]c12`, the EC50 amounted to 9 µM.

With `CC(C)Nc1nc2ccc([N+](=O)[O-])cc2[nH]1`, the EC50 was above 25 µM.

As for `CCCCNc1nc2ccc([N+](=O)[O-])cc2s1`, the EC50 was 6.9 µM.

In the case of `CCCCNc1nc2ccc([N+](=O)[O-])cc2[nH]1`, the EC50 was found to be 1.7 µM.
